Source: US3966793A (priority 1964, dated 1976)
Where two headings read alike, the source gives them in different places.

Tests used:
central nervous system = assay: Pharmacodynamic / central nervous system tests taken together; format: in vivo
Excerpt: A certain number of the compounds described in the present application have been studied with regard to their action on the central nervous system, as psycholeptics, myorrelaxants and tranquilizers. In addition, the acute toxicity has been determined for a number of these compounds.
It has thereby been possible to make quantitative comparisons of the activity of the different compounds for the different tests employed.

rat [1] = assay: Benzedrine provoked motor activity (R); format: in vivo; details: PO, read-out: Benzedrine provoked motor activity, 50% effective dose
Excerpt: (§1) 6. Spontaneous motor activity in the rat and mouse and provoked motor activity
(§2) The effect of drugs on voluntary movements of animals can be studied statistically by methods, the details of which will not be discussed here. The mouse, which is an extremely lively animal and moves about a great deal, is particularly suitable for this type of experiment.
(§3) Moreover, this spontaneous mobility can be exacerbated by preventive administration to the animals of certain substances such as benzedrine, mescaline and ritaline.
(§4) The experimental results obtained by these methods give valuable information for clinical purposes with regard to the treatment of ambulatory psychomotor crises.

Acute toxicity (M) LD 50 = details: in vivo, mouse
mice [2] = assay: Anti-convulsant activity (electric shock) (mice); format: in vivo; details: for ED50: Mus musculus, read-out: Electric shock, 50% effective dose
Excerpt: 4. Anti-convulsant activity (electric shock) (mice)
The test consists in determining the intensity of the electric current required to produce a fatal shock in a batch of test animals.
Certain preventively administered compounds effectively protect a certain percentage of animals subjected to an electric current of an intensity which is fatal to untreated animals.

cat = assay: Morphine crisis (C); format: in vivo; details: Felis catus, SC, read-out: Morphine crisis, 50% effective dose
Excerpt: In the cat, morphine produces a specific state of excitation with hallucinations which can be attenuated or suppressed by certain psycholeptic drugs.

mice [3] = assay: Anti-convulsant activity (anti-pentetrazole) (mice); format: in vivo; details: mouse, pentetrazole 125 mg./kg. IP, read-out: Anti-pentetrazole, 50% effective dose
Experimental: 3. Anti-convulsant activity (anti-pentetrazole) (mice)
Pentetrazole, injected intraperitoneally in a dose of 125 mg./kg. produces fatal convulsions in 100% of the animals.
Certain compounds exert a protective action preventing convulsions and permitting survival.

mouse [4] = assay: Morphine excitation (M); format: in vivo; details: PO, read-out: Morphine excitation, 50% effective dose
Excerpt: In the mouse, the action of morphine is different but also manifested by marked central excitation.

mouse [5] = assay: Potentiation of narcosis (M); format: in vivo; details: PO, read-out: Narcotic potentiation, 50% effective dose
Excerpt: 12. Potentiation of narcosis
Most psycholeptics are hypnotics in large doses, but many of them can, in small doses, without themselves producing any hypnosis, either prolong the time of sleep obtained with a true hypnotic (for example a barbiturate) or appreciably lower the dose of barbiturate required to obtain sleep.

mice [6] = assay: Balance test: rotating rod (mice) (Equilibration); format: in vivo; details: for ED50: Mus musculus, read-out: Equilibration, 50% effective dose
Excerpt: 2. Balance test: rotating rod (mice)
This test consists in observing whether the treated animals are capable of maintaining their balance on a horizontal rod kept in rotation.
Numerous neuroleptic compounds or tranquilizers disturb the equilibration reflex.

[7] = Reaction (pH) of aqueous solution; format: physicochemical
mouse [8] = assay: Spontaneous motor activity in the mouse; format: in vivo; details: for ED50: Mus musculus, read-out: Spontaneous motor activity, 50% effective dose
Excerpt: as §1, §2

male rat = assay: Combativeness (rat); format: in vivo; details: for ED50: rat, read-out: Combativeness, 50% effective dose
Excerpt: It is possible to make a male rat aggressive towards another male rat enclosed in the same cage by passing an electric current of more or less high voltage through the floor of the cage.
This test, like the preceding one, can obviously give information of clinical value for the treatment of aggression diseases.

mouse [9] = assay: Ritaline provoked motor activity (M); format: in vivo; details: PO, read-out: Ritaline provoked motor activity, 50% effective dose
Excerpt: as §1, §2, §3, §4

rat [10] = assay: Spontaneous motor activity in the rat; format: in vivo; details: for ED50: Rattus norvegicus, read-out: Spontaneous motor activity, 50% effective dose
Excerpt: as §1, §2

cats = assay: Aggressiveness (cat/mouse); format: in vivo; details: Felis catus, SC, read-out: Aggressiveness, 50% effective dose
Excerpt: 9. Aggressiveness (cat/mouse)
In general, 75 to 80% of cats are aggressive when confronted with white mice. Psycholeptics and tranquilizers may make the cat indifferent and sometimes even amiable to the mouse. Similarly, in the case of cats that are furious and aggressive in relation to humans, diminution or suppression of the instinctive fear and establishment of a climate of confidence are observed.

mouse [11] = assay: Mescaline provoked motor activity (M); format: in vivo; details: PO, read-out: Mescaline provoked motor activity, 50% effective dose
Excerpt: as §1, §2, §3, §4

mouse [12] = assay: Benzedrine provoked motor activity (M); format: in vivo; details: PO, read-out: Benzedrine provoked motor activity, 50% effective dose
Excerpt: as §1, §2, §3, §4

mouse [13] = assay: Antistrychnine activity; format: in vivo; details: po, read-out: Anti-strychnine, 50% effective dose
Excerpt: 7. Antistrychnine activity

mice [14] = assay: Exploration test (mice); format: in vivo; details: for ED50: Mus musculus, read-out: Exploration, 50% effective dose
Experimental: 5. Exploration test (mice)
This extremely simple test consists in placing a mouse at the center of a floor pierced with holes and in noting how many holes the mouse explores in 5 minutes. This test is carried out in a room in which complete silence is observed and which contains no person except the experimenter who is seated and still. It appeals to the curiosity of the animals. The doses of the compounds employed are, however, very small and considerably less than those required to impair movement. This simple test makes it possible to observe whether the compounds assayed produce a more or less pronounced lack of interest in the environment and it gives information which is interesting from the clinical point of view with regard to the treatment of anxiety and restlessness.

mice [15] = assay: Traction test (mice), myorelaxant activity; format: in vivo; details: for ED50: Mus musculus, read-out: Traction, 50% effective dose
Excerpt: This consists in observing when the treated animals are capable of retrieving a rod grasped by the front paws only. Inability to carry this out was interpreted as a sign of myorelaxant activity.

[16] = Stability in aqueous solution; format: physicochemical; details: compound A obtained
rats = assay: Double box conditioning test (R); format: in vivo; details: rat
Excerpt: The test used consists in educating rats to avoid an electric current passed through the floor of a cage of two compartments when they change compartments. The animal is first warned by a lamp which lights up in the compartment through which the current is passing while the other is in relative darkness.
This test, which requires more or less daily training at the rate of 50 times for each rat, makes it possible to follow the animals and note their progress. The performances realized at the end of a certain time (3 weeks to 1 month of training) are fairly constant, the percentage of errors made by adequately gifted subjects being less than 10 and very often even zero.
One would imagine that disturbances produced in these performances which call upon the memory of animals would be of great importance for the choice of a new medicament. A deconditioning drug of sufficient intensity could have the result of partly depriving the patient of the idea of danger and would consequently require special surveillance of the sick persons.

O=C(O)C1N=C(c2ccccc2)c2cc(Cl)ccc2NC1=O.[K+].[K+].[OH-].[OH-] (stereo not drawn) [4306 CB, 7-Chloro-2,3-dihydro-2-oxo-5-phenyl-1H-benzo[f]-1,4-diazepine-3-carboxylic acid, monopotassium salt, monopotassium hydroxide]
Activity compared with diazepame (central nervous system; most of the tests): highly active and in most of the tests, it is at least equal and frequently superior to diazepame | Pharmacodynamic comparison of products obtained by the two methods (central nervous system; saponification of benzodiazepine ester or of imine diester): pharmacodynamic studies confirm the identity of the products obtained by the two methods | ED50 (rat [1]): > 100 mg/kg | LD50 (Acute toxicity (M) LD 50; IP): 250 mg/kg | LD50 (Acute toxicity (M) LD 50; PO): 700 mg/kg | ED50 (mice [2]; po): 4.6 mg/kg | Electric shock, 50% effective dose (mice [2]; mouse, PO, listed as Ca 2053): 3 mg/kg | ED50 (cat): 25 mg/kg | ED50 (mice [3]; PO): 1.7 mg/kg | ED50 (mouse [4]): 50 mg/kg | Solubility in water (Solubility): completely soluble in water | ED50 (mouse [5]): 2 mg/kg | ED50 (mice [6]; po): 14 mg/kg | Equilibration, 50% effective dose (mice [6]; mouse, PO, listed as Ca 2053): 9.6 mg/kg | Reaction / pH of aqueous solution [7]: strongly alkaline in reaction | ED50 (mouse [8]; po): 5 mg/kg | Spontaneous motor activity, 50% effective dose (mouse [8]; PO, listed as Ca 2053): 10 mg/kg | ED50 (male rat; PO): < 25 mg/kg | ED50 (mouse [9]): 20 mg/kg | Spontaneous motor activity, 50% effective dose (rat [10]; PO, listed as Ca 2053): 25 mg/kg | ED50 (rat [10]; po): < 25 mg/kg | ED50 (cats): 25 mg/kg | ED50 (mouse [11]): 20 mg/kg | ED50 (mouse [12]): > 20 mg/kg | ED50 (mouse [13]): 25 mg/kg | ED50 (mice [14]; po): 4 mg/kg | Exploration, 50% effective dose (mice [14]; mouse, PO, listed as Ca 2053): 6.25 mg/kg | ED50 (mice [15]; po): 1.1 mg/kg | Traction, 50% effective dose (mice [15]; mouse, PO, listed as Ca 2053): 1.25 mg/kg

O=C([O-])C1N=C(c2ccccc2)c2cc(Cl)ccc2NC1=O.[K+] (stereo not drawn) [4311 CB, 7-Chloro-2,3-dihydro-2-oxo-5-phenyl-1H-benzo[f]-1,4-diazepine-3-carboxylic acid, potassium salt]
Activity compared with 4306 (central nervous system; in vivo): highly active but slightly less so than 4306 | Activity, parenteral compared with oral administration (central nervous system; parenteral vs oral): slightly less when administered parenterally than when administered orally | ED50 (rat [1]): 50 mg/kg | LD50 (Acute toxicity (M) LD 50; IP): 310 mg/kg | LD50 (Acute toxicity (M) LD 50; IV): 220 mg/kg | LD50 (Acute toxicity (M) LD 50; PO): 870 mg/kg | LD50 (Acute toxicity (M) LD 50; SC): 450 mg/kg | ED50 (mice [2]; ip): 2.6 mg/kg | ED50 (mice [3]; IP): 2.9 mg/kg | ED50 (mice [3]; PO): 1.65 mg/kg | ED50 (mouse [4]): 20 mg/kg | Solubility in water (Solubility): completely soluble in water | ED50 (mouse [5]): 2 mg/kg | ED50 (mice [6]; ip): 4.5 mg/kg | ED50 (mice [6]; po): 5 mg/kg | Reaction / pH of aqueous solution [7]: substantially neutral reaction | ED50 (mouse [8]; ip): 25 mg/kg | ED50 (mouse [8]; po): 10 mg/kg | ED50 (male rat; IP): 25 mg/kg | ED50 (male rat; PO): 25 mg/kg | ED50 (rat [10]; ip): 25 mg/kg | ED50 (rat [10]; po): 50 mg/kg | ED50 (mouse [11]): 20 mg/kg | Decarboxylation on heating an aqueous solution [16]: decarboxylated within a few minutes | ED50 (mouse [13]): 20 mg/kg | ED50 (rats; PO, read-out: Double box conditioning, 50% effective dose): 10 mg/kg | ED50 (mice [14]; ip): 5 mg/kg | ED50 (mice [15]; ip): 1.75 mg/kg | ED50 (mice [15]; po): 1.35 mg/kg

O=C(O)C1N=C(c2ccccc2)c2cc([N+](=O)[O-])ccc2NC1=O.[K+].[K+].[OH-].[OH-] (stereo not drawn) [4335 CB, 7-Nitro-2,3-dihydro-2-oxo-5-phenyl-1H-benzo[f]-1,4-diazepine-3-carboxylic acid, monopotassium salt, monopotassium hydroxide]
Activity in different tests, especially as myorelaxants and anticonvulsants (central nervous system; different tests of Table VI): extremely active in different tests | Effect on the faculties of displacement (central nervous system; in vivo): less effect on the faculties of displacement | ED50 (rat [1]): 100 mg/kg | LD50 (Acute toxicity (M) LD 50; PO): 560 mg/kg | ED50 (mice [2]; po): 3.2 mg/kg | ED50 (cat): 25 mg/kg | ED50 (mice [3]; PO): 0.44 mg/kg | ED50 (mouse [4]): 50 mg/kg | Solubility in water (Solubility): dissolves completely in water | ED50 (mice [6]; po): 4.3 mg/kg | Reaction / pH of aqueous solution [7]: strongly alkaline in reaction | ED50 (mouse [8]; po): 5 mg/kg | ED50 (male rat; PO): 10 mg/kg | Effect in diminishing aggressiveness (male rat; test for combativeness): marked effect in diminishing aggressiveness | ED50 (mouse [9]): > 20 mg/kg | ED50 (rat [10]; po): 25 mg/kg | ED50 (cats): 25 mg/kg | ED50 (mouse [11]): 20 mg/kg | ED50 (mouse [13]): > 20 mg/kg | ED50 (mice [14]; po): 1.8 mg/kg | ED50 (mice [15]; po): 1.25 mg/kg

O=C1CN=C(c2ccccc2)c2cc(Cl)ccc2N1 [Nor-diazepame, 7-Chloro-5-phenyl-2-oxo-2,3-dihydro-1H-benzo[f]-1,4-diazepine, reference compound]
ED50 (rat [1]): 100 mg/kg | ED50 (mice [2]; po): 9 mg/kg | ED50 (mice [3]; PO): 2.9 mg/kg | ED50 (mice [6]; po): 8.6 mg/kg | ED50 (mouse [8]; po): 50 mg/kg | ED50 (male rat; PO): 100 mg/kg | ED50 (rat [10]; po): 50 mg/kg | ED50 (mouse [12]): > 20 mg/kg | Double box conditioning, effect in words (rats): Without effect | ED50 (mice [14]; po): 7.8 mg/kg | ED50 (mice [15]; po): 3.5 mg/kg
